Reference: patent US20200237871A1, “METHODS FOR MITIGATING LIVER INJURY AND PROMOTING LIVER HYPERTROPHY, REGENERATION AND CELL ENGRAFTMENT IN CONJUNCTION WITH RADIATION AND/OR RADIOMIMETIC TREATMENTS” (Janssen Pharmaceutica NV, priority 2019, published 2020)
“Also recorded” adds a separate entry of the source.

Tests used:
DPPIV−/− knockout mice = assay: Relative change of dissected liver lobe size after hepatic irradiation (Example 2); assay type: in vivo, mouse
Protocol: 8-12-week-old male and female Di-peptyl peptidase IV (DPPIV) −/− knockout mice and 8-12-week-old male and female C57Bl6 mice were used in this study. Animals were weighed in the beginning of the experiment and before tissue collection. All animals were housed in the Institute for Animal Studies at Albert Einstein College of medicine and fed regular rodent chow. All experiments were performed to according to protocols approved by Institutional Animal Care and Use Committee at Albert Einstein College of Medicine. Animals were made cirrhotic using CCl4 administration (intraperitoneal [IP] injections twice a week for at least 11 weeks).
Image-guided external beam irradiation was performed using a small animal radiation research platform (SARRP, Xstrahl Inc., Suwanee, Ga.). Mice were given gastrografin contrast through gavage to improve visualization of the gastrointestinal (GI) tract. After approximately 2 minutes, mice were positioned on a tubular couch and anesthetized with ˜2% Isofluorane (Isothesia, USP) in 2 L/min pure oxygen. A cone-beam computed tomography (CBCT) scan was acquired and a treatment plan irradiating the median lobe and right lobe was generated using the MuriPlan software. […]

cirrhotic mice = assay: Extent of radiation induced liver disease (RILD) by SPECT-CT in cirrhotic mice (Example 5); assay type: in vivo, mouse; details: 50 Gy HIR, RWJ-800088 with LSEC transplants
Protocol: Male C57BL/6 DPPIV knockout male mice (10-14 weeks) were injected intraperitoneally with carbon tetrachloride (CCl4) twice a week for a minimum of 12 weeks until a maximum of when 5 out of 30 mice perish from the CCl4 injection. Immediately after, the animals were randomly distributed into the experimental groups.
Image-guided external beam irradiation was performed using a small animal radiation research platform (SARRP, Xstrahl Inc., Suwanee, Ga.). Mice were given gastrografin contrast through gavage to improve visualization of the gastrointestinal (GI) tract. […]
The methods were identical to Experiment 4 as described above with the exception that the CCl4 dose was increased to 20% in olive oil over 12 weeks. To evaluate the effect of RWJ-800088+Liver Sinusoidal Endothelial Cells (LSEC), RWJ-800088+Plerixafor (a selective inhibitor of CXCR4 administered pre- and post-irradiation) on radiation induced liver disease as measured by SPECT-CT in cirrhotic mice after single hepatic irradiation (HIR) at 50 Gy. […]
The dosing solution of RWJ-800088 was prepared as described in Experiment 4. […] The number of viral particles and infectious units' ratio was determined by infecting 293 cells at various dilutions, followed by immunocytochemical staining for adenoviral hexons. The infectious titer was calculated from the number of plaques formed per 1,000 viral particles. […]

Substance: methoxypolyethyleneglycol20000-propionyl-L-Isoleucyl-L-Glutamyl-Glycyl-L-Prolyl-L-Threonyl-L-Leucyl-L-Arginyl-L-Glutaminyl-L-2-Naphthylalanyl-L-Leucyl-L-Alanyl-L-Alanyl-L-Arginyl-Sarcosyl-Ne-(methoxypolyethyleneglycol20000-propionyl-L-Isoleucyl-L-Glutamyl-Glycyl-L-Prolyl-L-Threonyl-L-Leucyl-L-Arginyl-L-Glutaminyl-L-2-Naphthyl alanyl-L-Leucyl-L-Alanyl-L-Alanyl-L-Arginyl-Sarcosyl-)-Lysinamide [RWJ-800088]
- volume of the non-irradiated left lobe (DPPIV−/− knockout mice; 2-months post-HIR, HIR then LSECs+/−RWJ-800088 at 24-hours post-HIR): trend for an increase
- size of the irradiated lobes (median and right) (DPPIV−/− knockout mice; RWJ-800088 and HIR only): trend for a reduction
- protection against RILD (SPECT-CT) (cirrhotic mice): trend toward protection against RILD; also recorded: protected against RILD
